Experimental data from patent publication US20210172934A1, “SINGLE CELL CLONING APPROACHES FOR BIOLOGICAL STUDIES” (priority 2018, published 2021).

Columns and labels:
Met-1 cells = test: In vitro chemosensitivity study (CellTiter-Glo, ATP as surrogate for viability); type: cell-based, murine; conditions: 72 hours incubation; ATP levels (CellTiter-Glo)
Description: (§1) 4,000 Met-1 cells were plated in quadruplicates in 96-well plates containing growth media. The next day, vehicle (PBS) or chemotherapy (doxorubicin: 0.33 nM-2.2 ∝M; paclitaxel: 14 μM-160 μM) was added to the plate and incubated for 72 hours. ATP levels were quantified as a surrogate measure for viability (CellTiter-Glo, Promega) using a luminometer (Perkin-Elmer).
We next tested responsiveness of Met-1 mammary carcinoma to combination doxorubicin (A), cyclophosphamide (C), and paclitaxel (T) chemotherapy, AC-T, a standard of care chemotherapy regimen for breast cancer patients with ER-negative disease. We first tested the sensitivity of Met-1 cells to doxorubicin and paclitaxel in vitro and performed an initial in vivo experiment to identify a therapeutically relevant, well-tolerated combinatorial dose.

[1] = system: MT-2 WT and KO cell lines; test: In vitro sensitivity of MT-2 WT and KO cell lines to chemotherapy; type: cell-based, murine
Description: as §1, with “Met-1” left out

CC(=O)O[C@H]1C(=O)[C@@]2(C)[C@H]([C@H](OC(=O)c3ccccc3)[C@]3(O)C[C@H](OC(=O)[C@H](O)[C@@H](NC(=O)c4ccccc4)c4ccccc4)C(C)=C1C3(C)C)[C@]1(OC(C)=O)CO[C@@H]1C[C@@H]2O [paclitaxel]
viability of Met-1 cells in vitro (Met-1 cells): significantly decreased viability
(enhanced) sensitivity of MT-2 KO versus WT in vitro [1]: not apparent

COc1cccc2c1C(=O)c1c(O)c3c(c(O)c1C2=O)C[C@@](O)(C(=O)CO)C[C@@H]3O[C@H]1C[C@H](N)[C@H](O)[C@H](C)O1 [doxorubicin, Doxorubicin]
viability of Met-1 cells in vitro (Met-1 cells): significantly decreased viability
(enhanced) sensitivity of MT-2 KO versus WT in vitro [1]: not apparent
